What was measured:
E. coli = assay: AATCC Test Method 100 quantitative antibacterial test (bacterial reduction); format: cell-based, Escherichia coli (ATCC 2666); settings: contact time 60 min
From the text: (§1) AATCC Test Method 100 was adopted in this study. According to this test method, four pieces of staked circular fabric swatches 4.8±0.1 (about one grams) were inoculated with 1.0±0.1 milliliter of inoculum in a 250 milliliter jar. The inoculum was a nutrient broth culture containing over 1.0×10^6 clone forming units (CFU) of organisms. After the swatches were inoculated, they were neutralized by 100 milliliter of a 0.02% sodium thiosulfate solution in the jar. The contact time was the time between inoculation and neutralization. The jar was vigorously shaken and the neutralized solution was diluted in serial. The dilutions, usually 100, 101, and 102, were plated on nutrient agar and incubated for 18-24 hours at 37° C. The number of bacteria recovered from the inoculated finished fabrics was counted and compared with that from untreated fabrics. Six log reduction means the total inactivation of bacteria, and one log reduction means that finished fabrics reduced bacteria counts from 106 CFU to 105 CFU.
(§2) Finished fabrics prepared from solutions containing 1%-6% of monomethylol-5,5-dimethylhydantoin following the protocol set forth in Example 1 with pickup rates below 1% have been tested.
(§3) Fabrics finished in accordance with the protocol set forth in Example II with Anti-2, i.e., 1,3-dimethylol-5,5-dimethylhydantoin, were also tested with AATCC test method 100, which was briefly described in Example IV. In the tests, a diluted CLOROX® solution containing 0.01 % active chlorine was used to chlorinate the finished fabrics.

S. aureus = assay: as above; format: cell-based, Staphylococcu aureus (ATCC 5368); settings: contact time 60 min
From the text: as §1, §2, §3

[1] = Anti-2 2%, #400, last column pair
[2] = Anti-2 2%, #7409, last column pair
[3] = Anti-2 6%, #400, last column pair
[4] = Anti-2 6%, #7409, last column pair
[5] = Anti-2 10%, #400, last column pair
[6] = Anti-2 10%, #7409, last column pair

CC1(C)C(=O)N(CO)C(=O)N1CO [Anti-2, 1,3-dimethylol-5,5-dimethylhydantoin]
6 log: Durable Antibacterial Properties After fifteen washes E. coli (E. coli; Anti-2 2%, #400) | Durable Antibacterial Properties After five washes E. coli (E. coli; Anti-2 2%, #400) | Durable Antibacterial Properties After ten washes E. coli (E. coli; Anti-2 2%, #400) | Durable Antibacterial Properties After twenty washes E. coli (E. coli; Anti-2 2%, #400) | Durable Antibacterial Properties After twenty washes E. coli (E. coli; [1]) | Durable Antibacterial Properties After fifteen washes E. coli (E. coli; Anti-2 2%, #7409) | Durable Antibacterial Properties After five washes E. coli (E. coli; Anti-2 2%, #7409) | Durable Antibacterial Properties After ten washes E. coli (E. coli; Anti-2 2%, #7409) | Durable Antibacterial Properties After twenty washes E. coli (E. coli; Anti-2 2%, #7409) | Durable Antibacterial Properties After twenty washes E. coli (E. coli; [2]) | Durable Antibacterial Properties After fifteen washes E. coli (E. coli; Anti-2 6%, #400) | Durable Antibacterial Properties After five washes E. coli (E. coli; Anti-2 6%, #400) | Durable Antibacterial Properties After ten washes E. coli (E. coli; Anti-2 6%, #400) | Durable Antibacterial Properties After twenty washes E. coli (E. coli; Anti-2 6%, #400) | Durable Antibacterial Properties After twenty washes E. coli (E. coli; [3]) | Durable Antibacterial Properties After fifteen washes E. coli (E. coli; Anti-2 6%, #7409) | Durable Antibacterial Properties After five washes E. coli (E. coli; Anti-2 6%, #7409) | Durable Antibacterial Properties After ten washes E. coli (E. coli; Anti-2 6%, #7409) | Durable Antibacterial Properties After twenty washes E. coli (E. coli; Anti-2 6%, #7409) | Durable Antibacterial Properties After twenty washes E. coli (E. coli; [4]) | Durable Antibacterial Properties After fifteen washes E. coli (E. coli; Anti-2 10%, #400) | Durable Antibacterial Properties After five washes E. coli (E. coli; Anti-2 10%, #400) | Durable Antibacterial Properties After ten washes E. coli (E. coli; Anti-2 10%, #400) | Durable Antibacterial Properties After twenty washes E. coli (E. coli; Anti-2 10%, #400) | Durable Antibacterial Properties After twenty washes E. coli (E. coli; [5]) | Durable Antibacterial Properties After fifteen washes E. coli (E. coli; Anti-2 10%, #7409) | Durable Antibacterial Properties After five washes E. coli (E. coli; Anti-2 10%, #7409) | Durable Antibacterial Properties After ten washes E. coli (E. coli; Anti-2 10%, #7409) | Durable Antibacterial Properties After twenty washes E. coli (E. coli; Anti-2 10%, #7409) | Durable Antibacterial Properties After twenty washes E. coli (E. coli; [6]) | Durable Antibacterial Properties After fifteen washes S. aur. (S. aureus; Anti-2 2%, #400) | Durable Antibacterial Properties After five washes S. aur. (S. aureus; Anti-2 2%, #400) | Durable Antibacterial Properties After ten washes S. aur. (S. aureus; Anti-2 2%, #400) | Durable Antibacterial Properties After twenty washes S. aur. (S. aureus; Anti-2 2%, #400) | Durable Antibacterial Properties After twenty washes S. aur. (S. aureus; [1]) | Durable Antibacterial Properties After fifteen washes S. aur. (S. aureus; Anti-2 2%, #7409) | Durable Antibacterial Properties After five washes S. aur. (S. aureus; Anti-2 2%, #7409) | Durable Antibacterial Properties After ten washes S. aur. (S. aureus; Anti-2 2%, #7409) | Durable Antibacterial Properties After twenty washes S. aur. (S. aureus; Anti-2 2%, #7409) | Durable Antibacterial Properties After twenty washes S. aur. (S. aureus; [2]) | Durable Antibacterial Properties After fifteen washes S. aur. (S. aureus; Anti-2 6%, #400) | Durable Antibacterial Properties After five washes S. aur. (S. aureus; Anti-2 6%, #400) | Durable Antibacterial Properties After ten washes S. aur. (S. aureus; Anti-2 6%, #400) | Durable Antibacterial Properties After twenty washes S. aur. (S. aureus; Anti-2 6%, #400) | Durable Antibacterial Properties After twenty washes S. aur. (S. aureus; [3]) | Durable Antibacterial Properties After fifteen washes S. aur. (S. aureus; Anti-2 6%, #7409) | Durable Antibacterial Properties After five washes S. aur. (S. aureus; Anti-2 6%, #7409) | Durable Antibacterial Properties After ten washes S. aur. (S. aureus; Anti-2 6%, #7409) | Durable Antibacterial Properties After twenty washes S. aur. (S. aureus; Anti-2 6%, #7409) | Durable Antibacterial Properties After twenty washes S. aur. (S. aureus; [4]) | Durable Antibacterial Properties After fifteen washes S. aur. (S. aureus; Anti-2 10%, #400) | Durable Antibacterial Properties After five washes S. aur. (S. aureus; Anti-2 10%, #400) | Durable Antibacterial Properties After ten washes S. aur. (S. aureus; Anti-2 10%, #400) | Durable Antibacterial Properties After twenty washes S. aur. (S. aureus; Anti-2 10%, #400) | Durable Antibacterial Properties After twenty washes S. aur. (S. aureus; [5]) | Durable Antibacterial Properties After fifteen washes S. aur. (S. aureus; Anti-2 10%, #7409) | Durable Antibacterial Properties After five washes S. aur. (S. aureus; Anti-2 10%, #7409) | Durable Antibacterial Properties After ten washes S. aur. (S. aureus; Anti-2 10%, #7409) | Durable Antibacterial Properties After twenty washes S. aur. (S. aureus; Anti-2 10%, #7409) | Durable Antibacterial Properties After twenty washes S. aur. (S. aureus; [6])

From US6770287B1, “Biocidal cellulosic material” (The Regents of the University of California, priority 2000, dated 2004)
